Patent US11746116B2, “Antibiotic resistance breakers” (KING'S COLLEGE LONDON, priority 2017, dated 2023)
Like-named read-outs stand apart in the source and are kept apart here.

System: extended bacterial panel
Test: MIC against an extended bacterial panel (Table 15)
Type: cell-based

Measured: MIC

CC(=O)NC[C@H]1CN(c2ccc(N3CCOCC3)c(F)c2)C(=O)O1 [Linezolid]
1 µg/mL: Staphylococcus aureus, MRSA / NRS 3 / VISA, Staphylococcus aureus NRS3, MRSA/VISA, read-out: MIC | Staphylococcus aureus, MRSA / NRS 402 / VISA, Staphylococcus aureus NRS402, MRSA/VISA DAP-NS | Staphylococcus aureus, MRSA / VISA, Staphylococcus aureus FDA-CDC AR-BANK# 0217, MRSA/VISA, read-out: MIC | Staphylococcus aureus, MRSA / VISA, Staphylococcus aureus FDA-CDC AR-BANK# 0218, MRSA/VISA Mupirocin-R, read-out: MIC | Staphylococcus aureus, MRSA, Staphylococcus aureus ECL 2963666, MRSA DAP-NS, read-out: MIC
2 µg/mL: Staphylococcus aureus, ATCC 700699 / MRSA / VISA, Staphylococcus aureus Mu50, ATCC 700699, MRSA/VISA, read-out: MIC | Staphylococcus aureus, MRSA / NRS 17 / VISA, Staphylococcus aureus NRS17, MRSA/VISA, read-out: MIC | Staphylococcus aureus, MRSA / NRS 56 / VISA, Staphylococcus aureus NRS56, MRSA/VISA, read-out: MIC | Staphylococcus aureus, MRSA / NRS 100, Staphylococcus aureus COL, NRS100, MRSA, read-out: MIC | Staphylococcus aureus, MRSA / NRS 269, Staphylococcus aureus NRS269, MRSA TGC-NS, read-out: MIC | Staphylococcus aureus, MRSA / VISA, Staphylococcus aureus FDA-CDC AR-BANK# 0216, MRSA/VISA, read-out: MIC | Staphylococcus aureus, MRSA / VISA, Staphylococcus aureus FDA-CDC AR-BANK# 0219, MRSA/VISA, read-out: MIC | Staphylococcus aureus, MRSA / VISA, Staphylococcus aureus FDA-CDC AR-BANK# 0220, MRSA/VISA, read-out: MIC | Staphylococcus aureus, MRSA / VISA, Staphylococcus aureus FDA-CDC AR-BANK# 0221, MRSA/VISA, read-out: MIC | Staphylococcus aureus, MRSA / VISA, Staphylococcus aureus FDA-CDC AR-BANK# 0223, MRSA/VISA, read-out: MIC | Staphylococcus aureus, MRSA / VISA, Staphylococcus aureus FDA-CDC AR-BANK# 0225, MRSA/VISA, read-out: MIC | Staphylococcus aureus, MRSA / VISA, Staphylococcus aureus FDA-CDC AR-BANK# 0226, MRSA/VISA, read-out: MIC | Staphylococcus aureus, MRSA / VISA, Staphylococcus aureus FDA-CDC AR-BANK# 0228, MRSA/VISA Mupirocin-R, read-out: MIC | Staphylococcus aureus, MRSA / VRSA, Staphylococcus aureus VRS1, VanA MRSA/VRSA, read-out: MIC | Staphylococcus aureus, MRSA / VRSA, Staphylococcus aureus VRS2, VanA MRSA/VRSA, read-out: MIC | Staphylococcus aureus, MRSA / VRSA, Staphylococcus aureus VRS11b, VanA MRSA/VRSA, read-out: MIC | Staphylococcus aureus, VISA, Staphylococcus aureus FDA-CDC AR-BANK# 0222, VISA, read-out: MIC | Staphylococcus aureus, VRSA, Staphylococcus aureus ECL 2963646, VRSA, read-out: MIC | Staphylococcus epidermidis, NRS8, Staphylococcus epidermidis NRS8, VISE, read-out: MIC | Staphylococcus epidermidis, NRS60, Staphylococcus epidermidis NRS60, VISE, read-out: MIC
4 µg/mL: Staphylococcus aureus, MRSA / NRS 22 / USA600 / VISA, Staphylococcus aureus NRS22, USA600 MRSA/VISA, read-out: MIC | Staphylococcus aureus, MRSA / VISA, Staphylococcus aureus FDA-CDC AR-BANK# 0215, MRSA/VISA, read-out: MIC | Staphylococcus aureus, MRSA / VISA, Staphylococcus aureus FDA-CDC AR-BANK# 0224, MRSA/VISA Mupirocin-R, read-out: MIC | Staphylococcus aureus, MRSA / VISA, Staphylococcus aureus FDA-CDC AR-BANK# 0227, MRSA/VISA, read-out: MIC | Staphylococcus aureus, MRSA / VRSA, Staphylococcus aureus VRS3a, VanA MRSA/VRSA, read-out: MIC | Staphylococcus aureus, NRS 12 / VISA, Staphylococcus aureus NRS12, VISA, read-out: MIC | Staphylococcus epidermidis, NRS7, Staphylococcus epidermidis NRS7, VISE, read-out: MIC

CN(C)c1cc(NC(=O)CNC(C)(C)C)c(O)c2c1C[C@H]1C[C@H]3[C@H](N(C)C)C(O)=C(C(N)=O)C(=O)[C@@]3(O)C(O)=C1C2=O [Tigecycline, tigecycline, reference compound]
0.0625 µg/mL: Enterococcus faecalis, ATCC51299, Enterococcus faecalis ATCC 51299, VanB | Enterococcus faecium, CCUG59167, Enterococcus faecium TUH44-29, CCUG 59167, Van A
0.125 µg/mL: Enterococcus faecalis, ATCC29212, Enterococcus faecalis ATCC 29212 | Enterococcus faecalis, ATCC51575, Enterococcus faecalis ATCC 51575, VanB | Enterococcus faecalis, ATCC700802, Enterococcus faecalis ATCC 700802, VanB | Enterococcus faecalis, CCUG47775, Enterococcus faecalis CCUG 47775, Van A | Enterococcus gallinarum, ATCC 49608 / GALLINARUM, Enterococcus gallinarum ATCC 49608, VanC

CN[C@H](CC(C)C)C(=O)N[C@H]1C(=O)N[C@@H](CC(N)=O)C(=O)N[C@H]2C(=O)N[C@H]3C(=O)N[C@H](C(=O)N[C@H](C(=O)O)c4cc(O)cc(O)c4-c4cc3ccc4O)[C@H](O)c3ccc(c(Cl)c3)Oc3cc2cc(c3O[C@@H]2O[C@H](CO)[C@@H](O)[C@H](O)[C@H]2O[C@H]2C[C@](C)(N)[C@H](O)[C@H](C)O2)Oc2ccc(cc2Cl)[C@H]1O [Vancomycin, vancomycin, reference compound]
2 µg/mL: Streptococcus mutans, ATCC25175, Streptococcus mutans ATCC 25175
1 µg/mL: Staphylococcus aureus, ATCC10390, Staphylococcus aureus ATCC 10390 | Staphylococcus aureus, ATCC29213, Staphylococcus aureus ATCC 29213 with 50% human serum | Staphylococcus aureus, MRSA / NRS 119, Staphylococcus aureus NRS119, MRSA LZD-NS | Staphylococcus aureus, MRSA / NRS 127, Staphylococcus aureus NRS127, MRSA LZD-NS | Staphylococcus aureus, MRSA / NRS 382 / USA100, Staphylococcus aureus NRS382, USA100 MRSA | Staphylococcus aureus, MRSA / NRS 387 / USA800, Staphylococcus aureus NRS387, USA800 MRSA | Staphylococcus aureus, MRSA / NRS 484, Staphylococcus aureus NRS484, USA1100 MRSA | Staphylococcus aureus, MRSA, Staphylococcus aureus ECL 2963621, MRSA DAP-NS | Staphylococcus aureus, MRSA, Staphylococcus aureus ECL 2963667, MRSA DAP-NS | Staphylococcus aureus, MRSA, Staphylococcus aureus ECL 2963743, MRSA DAP-NS | Staphylococcus epidermidis, ATCC51625, Staphylococcus epidermidis CCF 15990, ATCC 51625 | Staphylococcus epidermidis, NRS101, Staphylococcus epidermidis NRS101 | Staphylococcus haemolyticus, ATCC29970, Staphylococcus haemolyticus ATCC 29970 | Staphylococcus intermedius, ATCC29663, Staphylococcus intermedius ATCC 29663
0.125 µg/mL: Staphylococcus aureus, Staphylococcus aureus 6538P
0.25 µg/mL: Staphylococcus aureus, MRSA / NRS 71, Staphylococcus aureus NRS71, MRSA | Strepotococcus pyogenes ATCC 14289 | Strepotococcus pyogenes ATCC 19615 | Streptococcus pneumoniae, ATCC6301, Streptococcus pneumoniae ATCC 6301 | Streptococcus pneumoniae, ATCC49619, Streptococcus pneumoniae ATCC 49619 | Streptococcus pneumoniae, ATCC51916, Streptococcus pneumoniae Tenessee 23F, ATCC 51916, MDR | Streptococcus pneumoniae, ATCC700669, Streptococcus pneumoniae SP264, ATCC 700669, ST 23F | Streptococcus pneumoniae, ATCC700673, Streptococcus pneumoniae Hungary 19A, ATCC 700673, MDR | Streptococcus pneumoniae, ATCC700675, Streptococcus pneumoniae S. Africa 6B-8, ATCC 700675 | Streptococcus pneumoniae, ATCC700676, Streptococcus pneumonia England ST14-9 ATCC 700676, ERY-R | Streptococcus pneumoniae, ATCC 700677 / PRSP, Streptococcus pneumoniae CSR 14-10, ATCC 700677, PRSP | Streptococcus pneumoniae, PRSP, Streptococcus pneumoniae TM532
0.5 µg/mL: Staphylococcus aureus, ATCC 13709 / MRSA, Staphylococcus aureus ATCC 13709, MRSA | Staphylococcus aureus, ATCC19636, Staphylococcus aureus Smith, ATCC 19636 | Staphylococcus aureus, ATCC27660, Staphylococcus aureus ATCC 27660 | Staphylococcus aureus, ATCC29213, Staphylococcus aureus ATCC 29213 | Staphylococcus aureus, ATCC 33591 / MRSA, Staphylococcus aureus ATCC 33591, MRSA | Staphylococcus aureus, ATCC 33592 / MRSA, Staphylococcus aureus ATCC 33592, MRSA | Staphylococcus aureus, ATCC33594, Staphylococcus aureus ATCC 33594 | Staphylococcus aureus, ATCC49230, Staphylococcus aureus ATCC 49230 | Staphylococcus aureus, BAA-1556 / MRSA / USA300, Staphylococcus aureus FPR3757, BAA-1556, USA300 MRSA | Staphylococcus aureus, BAA-1707 / MRSA / USA400, Staphylococcus aureus MW2, BAA-1707, USA400 MRSA | Staphylococcus aureus, BAA-1717 / MRSA / USA300, Staphylococcus aureus TCH1516, BAA-1717, USA300 MRSA | Staphylococcus aureus, MRSA / NRS 123 / USA400, Staphylococcus aureus NRS123, USA400 MRSA | Staphylococcus aureus, MRSA / NRS 271, Staphylococcus aureus E-MRSA 15, NRS271, MRSA LZD-NS | Staphylococcus aureus, MRSA / NRS 383 / USA200, Staphylococcus aureus NRS383, USA200 MRSA TIG-NS | Staphylococcus aureus, MRSA / NRS 384 / USA300, Staphylococcus aureus NRS384, USA300 MRSA | Staphylococcus aureus, MRSA / NRS 385 / USA500, Staphylococcus aureus NRS385, USA500 MRSA | Staphylococcus aureus, MRSA / NRS 386 / USA700, Staphylococcus aureus NRS386, USA700 MRSA | Staphylococcus aureus, MRSA / NRS 483, Staphylococcus aureus NRS483, USA1000 MRSA | Staphylococcus aureus, MRSA, Staphylococcus aureus R136 | Staphylococcus aureus, NRS72, Staphylococcus aureus Sanger-476, NRS72 | Staphylococcus aureus, NRS157, Staphylococcus aureus NRS157 | Staphylococcus epidermidis, ATCC12228, Staphylococcus epidermidis ATCC 12228 | Staphylococcus saprophyticus, ATCC15305, Staphylococcus saprophyticus ATCC 15305 | Streptococcus agalactiae, ATCC12386, Streptococcus agalactiae ATCC 12386 | Streptococcus oralis, ATCC9811, Streptococcus oralis ATCC 9811 | Streptococcus salivarius, ATCC13419, Streptococcus salivarius ATCC 13419 | Streptococcus sanguinis, ATCC10556, Streptococcus sanguinis ATCC 10556
